BindingDB's records for doi:10.1016/j.ejmech.2014.01.032 (University of Milan, 2014)

Assay: Inhibition of acetylcholinesterase in rat brain homogenate after 15 mins by Ellman assay

**Q.** Which IC50 does the source give for C[N+](C)(CC#CCOC1=NOCC1)CCCCCC[N+]1(C)CCC(N2C(=O)c3cccc4cccc(c34)C2=O)CC1 (stereo unspecified) here?
**A.** Its IC50 is 22.9 µM.

**Q.** With C[N+](C)(CC#CCOC1=NOCC1)CCCCCCCC[N+](C)(C)CCCN1C(=O)c2cccc3cccc(c23)C1=O as the compound, how does the IC50 read?
**A.** The IC50 was 10 µM.

**Q.** Which IC50 does the source give for C[N+](C)(CC#CCOC1=NOCC1)CCCCCCC[N+](C)(C)CCCN1C(=O)c2ccccc2C1=O here?
**A.** The IC50 was 31.6 µM.

**Q.** With C[N+](C)(CC#CCOC1=NOCC1)CCCCCC[N+](C)(C)CCCN1C(=O)c2cccc3cccc(c23)C1=O as the compound, how does the IC50 read?
**A.** The IC50 was 10.2 µM.

**Q.** Which IC50 does the source give for C[N+](C)(CC#CCOC1=NOCC1)CCCCCCCC[N+](C)(C)CCCN1C(=O)c2ccccc2C1=O here?
**A.** Its IC50 is 19.5 µM.

**Q.** For CC(C)(CN1C(=O)c2cccc3cccc(c23)C1=O)C[N+](C)(C)CCCCCC[N+](C)(C)CCCN1C(=O)c2ccccc2C1=O [Naphmethonium], which IC50 is on record?
**A.** The IC50 was 41.7 µM.
